# Literature values as cited in patent US20070167517A1, “Stabilized derivatives of ascorbic aicd” (Tagra Biotechnologies Ltd., priority 2003, published 2007).
# Tests used:
# [1] = standard solutions and topical formulations, RP-HPLC
# [2] = in the human
SMILES,stability [1],half-life [2]
"CCCCCCCCCCCCCCCC(=O)OC[C@H](O)[C@H]1OC(=O)C(O)=C1O [ascorbyl palmitate, 6-ascorbyl palmitate]",did not prevent hydrolysis of the molecule,–
O=C1O[C@H]([C@@H](O)CO)C(O)=C1O [ascorbic acid],–,about 20 days
"O=C1O[C@H]([C@@H](O)CO)C(O)=C1OP(=O)([O-])[O-].[Mg+2] [magnesium ascorbyl phosphate, magnesium L-ascorbic acid-2-phosphate]",very stable,–
